Several values for one entry are separate records, joined by “and”; a condition that tells them apart may be missing. Equal values may be shown once. Activity calls are given as the source filed them.
Assays:
[1] = NIH-3T3 fibroblast cytotoxicity, dose response, cytotoxicity control, cell-based, fluorescence, Alamar Blue, secondary assay (AID 2327); format: functional;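 also: NIH-3T3 mouse fibroblasts cultured with fluconazole at 8 µg/mL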
[2] = C. albicans growth with fluconazole, confirmation, fluorescence, retest (AID 2467); format: functional, cell-based
[3] = target: Heat shock protein HSP 90-alpha (Homo sapiens, UniProt P07900); format: functional, organism-based
[4] = target: Melanin-concentrating hormone receptor 1 (Homo sapiens, UniProt Q99705); experiment: Fluorescence-based counterscreen for antagonists of the G-protein coupled receptor 7 (GPR7): cell-based high throughput dose response assay to identify antagonists of the melanin-concentrating hormone receptor 1 (MCHR1).; format: functional
Chain of Melanin-concentrating hormone receptor 1 (Q99705 whole entry): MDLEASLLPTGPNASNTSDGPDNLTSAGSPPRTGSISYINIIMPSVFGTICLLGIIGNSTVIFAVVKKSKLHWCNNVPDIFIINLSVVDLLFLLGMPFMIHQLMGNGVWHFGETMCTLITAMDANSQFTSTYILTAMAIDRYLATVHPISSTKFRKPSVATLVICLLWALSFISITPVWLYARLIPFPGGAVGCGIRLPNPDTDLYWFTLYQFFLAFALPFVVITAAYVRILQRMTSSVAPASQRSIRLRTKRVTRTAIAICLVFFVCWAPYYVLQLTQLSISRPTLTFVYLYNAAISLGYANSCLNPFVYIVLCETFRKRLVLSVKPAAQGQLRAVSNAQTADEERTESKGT

[5] = target: Probable nicotinate-nucleotide adenylyltransferase (Staphylococcus aureus (strain N315), UniProt P65502); format: functional, Staphylococcus aureus subsp. aureus N315; conditions: read-out: IC50_Mean;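 also: confirmatory dose-response retesting of NadD inhibitor hits first found in an ultra-high-throughput screen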
Chain of Probable nicotinate-nucleotide adenylyltransferase (P65502 whole entry): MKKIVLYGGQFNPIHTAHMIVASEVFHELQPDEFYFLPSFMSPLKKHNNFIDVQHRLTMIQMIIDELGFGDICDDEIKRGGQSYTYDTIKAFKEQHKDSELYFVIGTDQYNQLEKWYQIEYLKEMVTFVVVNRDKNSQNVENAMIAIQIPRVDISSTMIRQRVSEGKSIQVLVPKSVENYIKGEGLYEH

Estrogen receptor beta = Estrogen receptor beta (Homo sapiens, UniProt Q92731); experiment: ERβ–SRC-3 coactivator interaction inhibitors, confirmation, orthogonal assay, biochemical, ELISA, streptavidin-HRP readout (AID 1060)
Chain of Estrogen receptor beta (Q92731 whole entry): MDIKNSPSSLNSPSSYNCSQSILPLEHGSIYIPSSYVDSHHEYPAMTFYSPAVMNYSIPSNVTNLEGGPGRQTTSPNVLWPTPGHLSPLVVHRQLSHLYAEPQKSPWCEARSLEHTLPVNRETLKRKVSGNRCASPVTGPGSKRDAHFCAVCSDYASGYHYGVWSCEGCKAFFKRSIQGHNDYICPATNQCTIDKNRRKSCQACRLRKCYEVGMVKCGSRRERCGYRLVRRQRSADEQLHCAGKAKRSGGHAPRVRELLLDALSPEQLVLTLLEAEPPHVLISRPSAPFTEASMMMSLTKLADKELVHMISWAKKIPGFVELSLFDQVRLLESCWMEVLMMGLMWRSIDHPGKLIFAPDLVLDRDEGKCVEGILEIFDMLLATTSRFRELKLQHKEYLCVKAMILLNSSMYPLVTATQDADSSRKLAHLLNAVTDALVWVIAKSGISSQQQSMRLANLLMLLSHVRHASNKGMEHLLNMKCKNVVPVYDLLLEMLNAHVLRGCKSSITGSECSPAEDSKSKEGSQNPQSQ

[6] = Luminescence Cell-Based Dose Response HTS to Identify Inhibitors of 5'UTR Stem-Loop Driven Prion Protein mRNA Translation in H4 Neuroglioblastoma Cells. [Related pubchem assays: 1827 (Project Summary), 1813 (Primary HTS)]; format: functional
Vero = Vero cell cytotoxicity, cytotoxicity control for flavivirus capping enzyme inhibitors (AID 588742); format: functional; conditions: Chlorocebus sabaeus
[7] = inhibitors of firefly luciferase expression or activity, dose response, H4 neuroglioma cells, luminescence (AID 1990); format: functional, cell-based
[8] = growth suppression of PTEN-null colon cells, dose response, cell-based, HCT116 PTEN knockout (AID 1047); format: functional;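 also: HCT116 colon tumor cells with PTEN knocked out; cells exposed to compound for 60 hours before readout; potency for loss of cell viability measured by luminescence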
[9] = inhibitors of SNCA 5'UTR-driven reporter translation, confirmation, H4 neuroglioma cells, luminescence (AID 1988); format: functional, cell-based
14-3-3 protein gamma = 14-3-3 protein gamma (Homo sapiens, UniProt P61981); experiment: modulators of 14-3-3 gamma client binding – dose response (AID 711); format: functional
Chain of 14-3-3 protein gamma (P61981 whole entry): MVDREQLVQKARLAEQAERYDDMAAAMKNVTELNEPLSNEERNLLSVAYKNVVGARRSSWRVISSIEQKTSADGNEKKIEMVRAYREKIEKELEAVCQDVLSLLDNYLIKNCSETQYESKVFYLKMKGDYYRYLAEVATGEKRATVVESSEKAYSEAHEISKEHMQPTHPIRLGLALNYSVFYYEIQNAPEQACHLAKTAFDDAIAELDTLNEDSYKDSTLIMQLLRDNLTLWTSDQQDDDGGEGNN

[10] = target: Lysine-specific demethylase 4C (Homo sapiens, UniProt Q9H3R0); experiment: GASC-1 (JMJD2C) histone demethylase inhibitors, dose response, biochemical, DELFIA europium, cherry-picked samples (AID 488835); format: functional
Chain of Lysine-specific demethylase 4C (Q9H3R0 whole entry): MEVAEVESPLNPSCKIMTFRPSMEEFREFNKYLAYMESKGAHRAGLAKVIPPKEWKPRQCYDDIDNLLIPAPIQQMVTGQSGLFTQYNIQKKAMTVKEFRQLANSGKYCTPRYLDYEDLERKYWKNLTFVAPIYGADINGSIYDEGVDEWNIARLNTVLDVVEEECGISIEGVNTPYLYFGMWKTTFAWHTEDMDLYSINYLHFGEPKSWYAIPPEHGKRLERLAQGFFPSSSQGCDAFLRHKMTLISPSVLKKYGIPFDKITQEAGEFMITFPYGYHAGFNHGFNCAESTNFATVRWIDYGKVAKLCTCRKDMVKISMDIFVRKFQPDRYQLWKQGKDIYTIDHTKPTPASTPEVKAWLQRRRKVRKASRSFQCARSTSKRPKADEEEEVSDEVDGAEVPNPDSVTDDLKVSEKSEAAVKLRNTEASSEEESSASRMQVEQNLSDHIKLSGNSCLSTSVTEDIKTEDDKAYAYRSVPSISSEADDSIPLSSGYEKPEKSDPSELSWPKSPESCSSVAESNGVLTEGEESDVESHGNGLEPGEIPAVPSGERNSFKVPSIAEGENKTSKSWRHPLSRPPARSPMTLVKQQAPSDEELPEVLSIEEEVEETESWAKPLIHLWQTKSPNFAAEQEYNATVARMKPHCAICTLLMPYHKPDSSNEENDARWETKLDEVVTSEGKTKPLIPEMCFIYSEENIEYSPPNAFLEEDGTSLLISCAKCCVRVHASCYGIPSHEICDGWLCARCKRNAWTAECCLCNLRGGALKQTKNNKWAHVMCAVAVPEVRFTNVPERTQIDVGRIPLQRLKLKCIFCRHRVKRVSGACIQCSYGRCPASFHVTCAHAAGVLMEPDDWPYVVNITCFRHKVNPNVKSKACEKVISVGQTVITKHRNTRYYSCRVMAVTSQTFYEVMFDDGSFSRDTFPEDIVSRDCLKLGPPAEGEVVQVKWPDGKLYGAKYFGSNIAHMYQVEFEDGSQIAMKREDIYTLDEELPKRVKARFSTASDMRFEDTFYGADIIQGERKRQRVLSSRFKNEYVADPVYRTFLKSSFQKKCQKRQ

[11] = target: T1, Lysine-specific demethylase 4A (Homo sapiens, UniProt O75164); experiment: JMJD2A histone demethylase inhibitors, dose response, selectivity assay for GASC-1 inhibitor project, biochemical, DELFIA europium, cherry-picked samples (AID 488840)
T1 sequence (O75164 whole entry): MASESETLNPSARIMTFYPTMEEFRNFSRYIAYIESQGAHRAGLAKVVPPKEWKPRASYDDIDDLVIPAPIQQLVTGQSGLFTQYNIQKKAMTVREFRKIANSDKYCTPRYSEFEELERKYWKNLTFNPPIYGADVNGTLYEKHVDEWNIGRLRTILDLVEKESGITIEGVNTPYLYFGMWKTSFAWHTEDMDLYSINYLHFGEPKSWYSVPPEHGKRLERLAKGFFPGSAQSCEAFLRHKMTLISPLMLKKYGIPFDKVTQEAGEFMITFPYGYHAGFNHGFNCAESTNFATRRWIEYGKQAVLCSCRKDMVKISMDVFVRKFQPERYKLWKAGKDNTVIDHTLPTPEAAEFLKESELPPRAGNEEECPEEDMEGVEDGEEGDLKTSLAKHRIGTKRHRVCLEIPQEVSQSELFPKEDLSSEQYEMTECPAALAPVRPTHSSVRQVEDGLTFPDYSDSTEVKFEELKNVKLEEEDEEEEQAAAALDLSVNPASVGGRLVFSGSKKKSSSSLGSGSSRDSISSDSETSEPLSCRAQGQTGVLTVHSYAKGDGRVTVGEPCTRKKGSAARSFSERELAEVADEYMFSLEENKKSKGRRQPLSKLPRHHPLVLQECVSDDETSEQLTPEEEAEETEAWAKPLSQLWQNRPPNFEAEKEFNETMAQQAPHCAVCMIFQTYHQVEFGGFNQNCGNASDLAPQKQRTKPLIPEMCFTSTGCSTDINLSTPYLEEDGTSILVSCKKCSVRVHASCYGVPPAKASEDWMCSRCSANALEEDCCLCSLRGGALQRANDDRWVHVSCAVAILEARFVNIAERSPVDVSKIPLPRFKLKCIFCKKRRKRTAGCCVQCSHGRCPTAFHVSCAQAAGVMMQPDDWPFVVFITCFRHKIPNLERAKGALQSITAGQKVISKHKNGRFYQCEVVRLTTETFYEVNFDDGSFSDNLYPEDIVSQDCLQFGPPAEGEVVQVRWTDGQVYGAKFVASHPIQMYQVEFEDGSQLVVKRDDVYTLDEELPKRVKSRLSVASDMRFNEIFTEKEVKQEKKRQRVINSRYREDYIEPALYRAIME

[12] = target: T2, Tyrosine-protein phosphatase non-receptor type 22 (Homo sapiens, UniProt Q9Y2R2); experiment: SAR LYP1 Fluorescent Assay using pCAP substrate for In Vitro dose response studies - Set 4. [Related pubchem assays (depositor defined):AID1779, AID1784]; format: functional
T2 sequence (Q9Y2R2 whole entry): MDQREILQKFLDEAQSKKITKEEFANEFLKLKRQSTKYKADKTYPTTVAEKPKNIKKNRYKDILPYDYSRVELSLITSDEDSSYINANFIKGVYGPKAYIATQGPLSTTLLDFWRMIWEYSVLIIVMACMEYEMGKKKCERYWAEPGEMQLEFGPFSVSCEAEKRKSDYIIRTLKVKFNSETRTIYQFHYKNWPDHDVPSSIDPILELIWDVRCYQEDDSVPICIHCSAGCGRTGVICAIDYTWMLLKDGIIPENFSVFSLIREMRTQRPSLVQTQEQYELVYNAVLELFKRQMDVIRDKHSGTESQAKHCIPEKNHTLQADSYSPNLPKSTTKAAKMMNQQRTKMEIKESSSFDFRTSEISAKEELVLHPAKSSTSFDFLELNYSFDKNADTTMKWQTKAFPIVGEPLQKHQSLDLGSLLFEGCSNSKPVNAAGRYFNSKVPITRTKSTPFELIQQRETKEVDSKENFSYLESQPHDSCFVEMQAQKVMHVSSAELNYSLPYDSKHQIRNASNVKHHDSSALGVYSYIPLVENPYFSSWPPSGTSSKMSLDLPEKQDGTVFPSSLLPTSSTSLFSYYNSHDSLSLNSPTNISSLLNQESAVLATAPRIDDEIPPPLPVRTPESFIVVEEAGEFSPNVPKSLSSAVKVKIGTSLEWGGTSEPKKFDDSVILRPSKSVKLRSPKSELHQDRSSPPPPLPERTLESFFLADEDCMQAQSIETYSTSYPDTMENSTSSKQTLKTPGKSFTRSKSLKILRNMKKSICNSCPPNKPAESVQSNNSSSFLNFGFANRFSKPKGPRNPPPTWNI

[13] = target: T2, Tyrosine-protein phosphatase non-receptor type 22; experiment: SAR LYP1 Fluorescent Assay using OMFP substrate for In Vitro dose response studies - Set 3. [Related pubchem assays (depositor defined):AID1779, AID1784, AID2140, AID2686]; format: functional
[14] = target: T2, Tyrosine-protein phosphatase non-receptor type 22; experiment: PubChem AID 2135

CCN1/C(=C/c2ccc3cc(C)ccc3[n+]2CC)Sc2cc(C)c(C)cc21
EC50 [1]: 9.66 µM (inconclusive)
EC50 [2]: < 0.03 µM (active)
AC50 [3]: 4.16 µM (active) and 2.67 µM (active)
IC50 [4]: > 4.87 µM (active)
EC50 (cells): 0.046 µM (active)

Nc1ccc2nc3c(O)nc(S)nc3nc2c1
IC50 [5]: 17 µM (active)

COc1ccc(C(=O)Nc2nc3c(s2)Cc2cc(OC)ccc2-3)cc1
IC50 (Estrogen receptor beta): < 0.023 µM (not active)

Cc1oc2c(c1C(=O)c1ccccc1)C(=O)C(=O)c1ccccc1-2
EC50 [6]: > 120 µM (not active)
CC50 (Vero): 6.37 µM (active)
EC50 [7]: > 120 µM (not active)
EC50 [8]: 2.64 µM (active)
EC50 [9]: 8.93 µM (active)

O=C1CCCC2=C1C1(O)C(=O)c3ccccc3C1(O)O2 (stereo not drawn)
IC50 (14-3-3 protein gamma): > 50 µM (not active)

CSc1ccc(C=NNc2ccc(S(=O)(=O)Nc3ccccc3C(=O)O)cc2[N+](=O)[O-])cc1
AC50 [10]: 5.43 µM (active)
AC50 [11]: 12.4 µM (active)

O=C(O)COc1ccc(/C=N/NC(=O)c2ccc(-c3csc(Nc4ccc(Cl)cc4)n3)cc2)cc1
IC50 [12]: 0.527 µM (active)
IC50 [13]: 0.626 µM (active)
IC50 [14]: 0.113 µM (active)

— ChEMBL document CHEMBL1201862, “PubChem BioAssay data set” (2004)
